Where “and” joins values, the source holds several entries; their conditions need not be identical. Equal entries are not always repeated. Bounds are passed on as bounds.

For this assay, the system named is 192522-019-R-J2-PDC complex tumor spheroid viability. Kind of assay: Anticancer human tumor 192522-019-R-J2-PDC patient-derived colon adenocarcinoma cell line growth inhibition [POLQ]. The note with it: for viability, T/C: stronger effect = lower value. The procedure: Multicellular complex tumor spheroid response to Polymerase (POL) inhibitors (novobiocin, ART-558, RP6685) in combination with a variety of drugs and investigational agents in selected tumor cell lines
The POL inhibitors (novobiocin, ART-558, and RP6685) were evaluated both individually and in combination with standard of care and investigational anticancer small molecules within a complex spheroid model of solid tumors. . Complex spheroids include a stromal component modeled by human endothelial cells (HUVEC) and fibroblasts modeled by human mesenchymal stem cells (MSCs). The concentration ranges selected for each drug and investigational agent were based upon clinically achievable concentrations if the clinical Cmax of the agent was known.
Compounds. The drugs and investigational agents: novobiocin (NSC847541), ART-558 (NSC835418), RP-6685 (NSC848927), peposertib (NSC802822), ceralasertib (NSC780249), elimusertib (NSC800525), camonsertib (NSC841442), AZD-1390 (NSC803789), olaparib (NSC753686), talazoparib (NSC767125), rucaparib (NSC756644), sotorasib (NSC818433), MRTX-1133 (NSC836407), SN-38 (NSC673596), topotecan (NSC609699), epotoside (NSC141540), doxorubicin (NSC123127), gemcitabine (NSC613327), 5-fluorouracil (NSC19893), paclitaxel (NSC125973), vemurafenib (NSC761431), MSA-2 (NSC828583), SN-011 (NSC837082), adavosertib (NSC754352), prexasertib (NSC758257), carboplatin (NSC241240) and oxaliplatin (NSC266046), were obtained from the National Cancer Institute (NCI) Developmental Therapeutics Program Chemical Repository (21). The FDA-approved anticancer drug set is available from the Developmental Therapeutics Program at https://dtp.cancer.gov/organization/dscb/obtaining/. […] The stock solutions were prepared in dimethyl sulfoxide (DMSO, Sigma-Aldrich, St. Louis, MO, cat. D2650), except for the platinum compounds which were prepared in saline (Quality Biological, Gaithersburg, MD, cat. 114-055-101), at 800-fold the tested concentration and stored at -70 degrees C prior to their use. All drugs and investigational agents were tested over a range starting from a high concentration at or near the clinical Cmax and decreasing in half-log increments. If the clinical Cmax for an agent had not been determined, the highest concentration tested was 10 microM, except for SN-38, which was tested at a high concentration of 1 microM.
Cell Culture. All cells were maintained in an incubator at 37 degrees C and 5% CO2 with 95% humidity. The PDC lines were cultured according to standard operating procedures established by the NCI PDMR (https://pdmr.cancer.gov). Table 3 of the manuscript, lists the cell lines along with the number of the three cell types plated to form the mct-spheroids and media for tumor cell growth. After thawing, all PDC lines, except 997537-175-T-J1-PDC and 415267-285-R-J2-PDC, were cultured in Matrigel-coated flasks prepared with a working solution of 1X Ham's F-12 nutrient mix, without supplementation (Thermo Fisher Scientific, cat. 11765054), 100 U/mL penicillin-streptomycin (Thermo Fisher Scientific, cat. 15140122), and 2.5% Matrigel (Corning Inc., Corning, NY, cat. 354248) for the first three passages. The two PDC lines 997537-175-T-J1-PDC and 415267-285-R-J2-PDC were cultured on uncoated flasks. The 857933-349-R-J2-PDC line was cultured in 6C/Colon 1B media containing advanced DMEM/F-12 (Thermo Fisher Scientific, cat. 12634028), 10 mM HEPES (Thermo Fisher Scientific, cat. 15630080), 1X GlutaMAX supplement (Thermo Fisher Scientific, cat. 35050061), 0.1 mg/mL primocin (InvivoGen, San Diego, CA, cat. ant-pm-2), 10% defined fetal bovine serum, heat inactivated (HyClone Laboratories Inc., Logan, UT, cat. SH30070.03HI), 50% L-WRN conditioned media (ATCC, cat. CRL-3276), 1.25 mM N-Acetyl-L-cysteine (Sigma-Aldrich, cat. A9165), 10 mM nicotinamide (Sigma-Aldrich, cat. N0636), 1X B-27 supplement (Thermo Fisher Scientific, cat. 17504044), 1X N-2 supplement (Thermo Fisher Scientific, cat. […]
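Also: spheroids exposed to drugs for seven days before reading.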
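For viability, T/C in this document: 100% = DMSO vehicle control viability in luminescence.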

For `COc1ccc([C@@H](O)c2cc(-c3ncnc4cc(N5CCOCC5)ccc34)c(F)cc2Cl)nn1`, the viability, T/C (commonly the result in the treated group divided by that in the control group, in per cent) (compound 0.0316 µM) is 105% and 101% and 113%; the viability, T/C (compound 0.1 µM) is 93.6% and 91.3% and 99.9%; the viability, T/C (compound 0.316 µM) was 100% and 94.7% and 106%; the viability, T/C (compound 1 µM) is 77.6% and 101% and 102%; the viability, T/C (compound 3.16 µM) is 83% and 75.1% and 92.5%; the viability, T/C (compound 10 µM) was 54.5% and 64.9% and 65.9%. The IC50 (as a rule, the midpoint of a concentration-inhibition curve) (curve of compound) was above 10 µM.
Take `CNCc1ccc(-c2[nH]c3cc(F)cc4c3c2CCNC4=O)cc1`: the viability, T/C was 104% and 103% and 93% (compound 0.0316 µM); 98.4% and 101% and 86% (compound 0.1 µM); 104% and 102% and 109% (compound 0.316 µM); 107% and 120% and 102% (compound 1 µM); 100% and 108% and 105% (compound 3.16 µM); 96.8% and 103% and 92.1% (compound 10 µM). The concentration for half-maximal inhibition (IC50) (curve of compound) was above 10 µM.
Turning to `O=C(Nc1ccc(O)c(NS(=O)(=O)c2ccc(F)cc2)c1)c1ccc(-c2ccccc2)cc1`, the viability, T/C (compound 0.0316 µM) was 104% and 99.9% and 101%; the viability, T/C (compound 0.1 µM) was 99.1% and 96.7% and 91.7%; the viability, T/C (compound 0.316 µM) was 102% and 97.6% and 88.4%; the viability, T/C (compound 1 µM) was 101% and 99.2% and 96%; the viability, T/C (compound 3.16 µM) was 103% and 99.1% and 99.2%; the viability, T/C (compound 10 µM) was 104% and 100% and 93.4%. Further, the IC50 (curve of compound) was above 10 µM.
On to `CCc1cc2c(N3CCc4c(cc(Cn5ccnc5)cc4-c4cn(C)nc4C(F)(F)F)C3=O)cc(C)nc2c(OC)n1`, for which the viability, T/C runs as follows: (compound 0.0316 µM) 109% and 107% and 102%; (compound 0.1 µM) 91.4% and 91% and 94.7%; (compound 0.316 µM) 80.7% and 86.7% and 85.3%; (compound 1 µM) 80.1% and 82% and 77.7%; (compound 3.16 µM) 73.1% and 73% and 75.4%; (compound 10 µM) 68.1% and 75.8% and 68.3%. The IC50 (curve of compound) is above 10 µM.
`Cc1cccc(N(C)C(=O)C2C(O)CCN2c2nc(C)cc(C(F)(F)F)c2C#N)c1` (configuration not stated): the viability, T/C was 107% [middle of 13 runs] (compound 0.0316 µM); 108% [middle of 13 runs] (compound 0.1 µM); 110% [middle of 13 runs] (compound 0.316 µM); 106% [middle of 13 runs] (compound 1 µM); 106% [middle of 13 runs] (compound 3.16 µM); 110% [middle of 13 runs] (compound 10 µM). The half-maximal inhibitory concentration (IC50) was above 10 µM (compound alone, run of 10/31/2023) and above 10 µM (compound alone, run of 11/06/2023).
In the case of `CC[C@@]1(O)C(=O)OCc2c1cc1n(c2=O)Cc2cc3c(CN(C)C)c(O)ccc3nc2-1`, the viability, T/C by setting is: (compound 0.000316 µM) 113% and 103% and 94.6%; (compound 0.001 µM) 94.3% and 94.9% and 92.1%; (compound 0.00316 µM) 106% and 97.8% and 101%; (compound 0.01 µM) 100% and 106% and 103%; (compound 0.0316 µM) 91.9% and 95.4% and 91.8%; (compound 0.1 µM) 70.9% and 76% and 51.1%. Further, where the note is “curve of compound”, the IC50 is above 0.1 µM.
On to `CC1COCCN1c1cc(C2(S(C)(=N)=O)CC2)nc(-c2ccnc3[nH]ccc23)n1` (configuration not stated), for which the viability, T/C (compound 0.0316 µM) was 102% (2×) and 110%; the viability, T/C (compound 0.1 µM) was 90% and 103% and 101%; the viability, T/C (compound 0.316 µM) was 97% and 97.9% and 103%; the viability, T/C (compound 1 µM) was 90.6% and 100% and 91.6%; the viability, T/C (compound 3.16 µM) is 59.7% and 64.2% and 56.4%; the viability, T/C (compound 10 µM) is 31.6% and 37.1% and 31.1%. Further, for the setting “curve of compound”, the IC50 is 4.7 µM and 5.78 µM and 4.21 µM.
In the case of `CCCS(=O)(=O)Nc1ccc(F)c(C(=O)c2c[nH]c3ncc(-c4ccc(Cl)cc4)cc23)c1F` + COC1C(OC(N)=O)C(O)C(Oc2ccc3c(O)c(NC(=O)c4ccc(O)c(CC=C(C)C)c4)c(=O)oc3c2C)OC1(C)C, the IC50 by setting is: (curve of first compound, second compound 0.0316 µM) above 10 µM; (curve of first compound, second compound 0.1 µM) above 10 µM; (curve of first compound, second compound 0.316 µM) above 10 µM; (curve of first compound, second compound 1 µM) above 10 µM; (curve of first compound, second compound 3.16 µM) above 10 µM; (curve of first compound, second compound 10 µM) above 10 µM. The viability, T/C by setting is: (second compound 0.0316 µM, first compound 0.0316 µM) 115%; (second compound 0.0316 µM, first compound 0.1 µM) 97.6%; (second compound 0.0316 µM, first compound 0.316 µM) 110%; (second compound 0.0316 µM, first compound 1 µM) 96.9%; (second compound 0.0316 µM, first compound 3.16 µM) 124%; (second compound 0.0316 µM, first compound 10 µM) 97.9%. For the same compound, the viability, T/C reads like this: (second compound 0.1 µM, first compound 0.0316 µM) 105%; (second compound 0.1 µM, first compound 0.1 µM) 103%; (second compound 0.1 µM, first compound 0.316 µM) 110%; (second compound 0.1 µM, first compound 1 µM) 108%; (second compound 0.1 µM, first compound 3.16 µM) 107%; (second compound 0.1 µM, first compound 10 µM) 113%. Moreover, the viability, T/C is, setting by setting: (second compound 0.316 µM, first compound 0.0316 µM) 109%; (second compound 0.316 µM, first compound 0.1 µM) 110%; (second compound 0.316 µM, first compound 0.316 µM) 105%; (second compound 0.316 µM, first compound 1 µM) 106%; (second compound 0.316 µM, first compound 3.16 µM) 104%; (second compound 0.316 µM, first compound 10 µM) 108%. The viability, T/C (second compound 1 µM, first compound 0.0316 µM) was determined as 104%; the viability, T/C (second compound 1 µM, first compound 0.1 µM) turned out to be 100%; the viability, T/C (second compound 1 µM, first compound 0.316 µM) stood at 107%; the viability, T/C (second compound 1 µM, first compound 1 µM) was found to be 103%; the viability, T/C (second compound 1 µM, first compound 3.16 µM) amounted to 101%; the viability, T/C (second compound 1 µM, first compound 10 µM) was determined as 100%. The viability, T/C is, setting by setting: (second compound 3.16 µM, first compound 0.0316 µM) 110%; (second compound 3.16 µM, first compound 0.1 µM) 102%; (second compound 3.16 µM, first compound 0.316 µM) 108%; (second compound 3.16 µM, first compound 1 µM) 97.3%; (second compound 3.16 µM, first compound 3.16 µM) 106%; (second compound 3.16 µM, first compound 10 µM) 117%. Further, the viability, T/C reads like this: (second compound 10 µM, first compound 0.0316 µM) 107%; (second compound 10 µM, first compound 0.1 µM) 102%; (second compound 10 µM, first compound 0.316 µM) 103%; (second compound 10 µM, first compound 1 µM) 101%; (second compound 10 µM, first compound 3.16 µM) 124%; (second compound 10 µM, first compound 10 µM) 117%.
